Assay results published in ChEMBL document CHEMBL3875154 (Eur J Med Chem, 2016).

What was measured:
[1] = Inhibition of human PDE4 catalytic domain using FAM-3',5'-cAMP as substrate after 1 hr by fluorescence polarization assay
[2] = species: Homo sapiens; assay: Potency index, ratio of rolipram IC50 to test compound IC50 for human PDE4 catalytic domain
[3] = target: T1, 3',5'-cyclic-AMP phosphodiesterase 4C (Homo sapiens, UniProt Q08493); assay: Inhibition of full length human PDE4C1 using FAM-3',5'-cAMP as substrate after 1 hr by fluorescence polarization assay
[4] = target: T2, cAMP and cAMP-inhibited cGMP 3',5'-cyclic phosphodiesterase 10A (Homo sapiens, UniProt Q9Y233); assay: Inhibition of human PDE10A2 using FAM-3',5'-cAMP as substrate after 1 hr by fluorescence polarization assay
[5] = target: T3, High affinity 3',5'-cyclic-AMP phosphodiesterase 7A (Homo sapiens, UniProt Q13946); assay: Inhibition of human PDE7A using FAM-3',5'-cAMP as substrate after 1 hr by fluorescence polarization assay
[6] = target: T2, cAMP and cAMP-inhibited cGMP 3',5'-cyclic phosphodiesterase 10A; assay: Inhibition of human PDE10A2 at 10^4 nM using FAM-3',5'-cAMP as substrate after 1 hr by fluorescence polarization assay relative to control
[7] = target: T4, Dual specificity calcium/calmodulin-dependent 3',5'-cyclic nucleotide phosphodiesterase 1A (Homo sapiens, UniProt P54750); assay: Inhibition of human PDE1A using FAM-3',5'-cAMP as substrate after 1 hr by fluorescence polarization assay
[8] = target: T5, High affinity cGMP-specific 3',5'-cyclic phosphodiesterase 9A (Homo sapiens, UniProt O76083); assay: Inhibition of human PDE9A2 at 10^4 nM using FAM-3',5'-cAMP as substrate after 1 hr by fluorescence polarization assay relative to control
[9] = target: T6, Dual 3',5'-cyclic-AMP and -GMP phosphodiesterase 11A (Homo sapiens, UniProt Q9HCR9); assay: Inhibition of human PDE11A at 10^4 nM using FAM-3',5'-cAMP as substrate after 1 hr by fluorescence polarization assay relative to control
[10] = target: T7, 3',5'-cyclic-AMP phosphodiesterase 4D (Homo sapiens, UniProt Q08499); assay: Inhibition of full length human PDE4D7 at 10^4 nM using FAM-3',5'-cAMP as substrate after 1 hr by fluorescence polarization assay relative to control
[11] = target: T8, cGMP-inhibited 3',5'-cyclic phosphodiesterase 3B (Homo sapiens, UniProt Q13370); assay: Inhibition of human PDE3B at 10^4 nM using FAM-3',5'-cAMP as substrate after 1 hr by fluorescence polarization assay relative to control
[12] = target: T1, 3',5'-cyclic-AMP phosphodiesterase 4C; assay: Inhibition of full length human PDE4C1 at 10^4 nM using FAM-3',5'-cAMP as substrate after 1 hr by fluorescence polarization assay relative to control
[13] = target: T9, Cone cGMP-specific 3',5'-cyclic phosphodiesterase subunit alpha' (Homo sapiens, UniProt P51160); assay: Inhibition of human PDE6C using FAM-3',5'-cAMP as substrate after 1 hr by fluorescence polarization assay
[14] = target: T10, 3',5'-cyclic-AMP phosphodiesterase 4B (Homo sapiens, UniProt Q07343); assay: Inhibition of full length human PDE4B1 using FAM-3',5'-cAMP as substrate after 1 hr by fluorescence polarization assay
[15] = target: T11, 3',5'-cyclic-AMP phosphodiesterase 4A (Homo sapiens, UniProt P27815); assay: Inhibition of full length human PDE4A4 at 10^4 nM using FAM-3',5'-cAMP as substrate after 1 hr by fluorescence polarization assay relative to control
[16] = target: T12, cGMP-specific 3',5'-cyclic phosphodiesterase (Homo sapiens, UniProt O76074); assay: Inhibition of human PDE5A using FAM-3',5'-cAMP as substrate after 1 hr by fluorescence polarization assay
[17] = target: T5, High affinity cGMP-specific 3',5'-cyclic phosphodiesterase 9A; assay: Inhibition of human PDE9A2 using FAM-3',5'-cAMP as substrate after 1 hr by fluorescence polarization assay
[18] = target: T3, High affinity 3',5'-cyclic-AMP phosphodiesterase 7A; assay: Inhibition of human PDE7A at 10^4 nM using FAM-3',5'-cAMP as substrate after 1 hr by fluorescence polarization assay relative to control
[19] = target: T13, High affinity cAMP-specific and IBMX-insensitive 3',5'-cyclic phosphodiesterase 8A (Homo sapiens, UniProt O60658); assay: Inhibition of human PDE8A1 using FAM-3',5'-cAMP as substrate after 1 hr by fluorescence polarization assay
[20] = target: T14, cGMP-dependent 3',5'-cyclic phosphodiesterase (Homo sapiens, UniProt O00408); assay: Inhibition of human PDE2A using FAM-3',5'-cAMP as substrate after 1 hr by fluorescence polarization assay
[21] = target: T10, 3',5'-cyclic-AMP phosphodiesterase 4B; assay: Inhibition of full length human PDE4B1 at 10^4 nM using FAM-3',5'-cAMP as substrate after 1 hr by fluorescence polarization assay relative to control
[22] = target: T13, High affinity cAMP-specific and IBMX-insensitive 3',5'-cyclic phosphodiesterase 8A; assay: Inhibition of human PDE8A1 at 10^4 nM using FAM-3',5'-cAMP as substrate after 1 hr by fluorescence polarization assay relative to control
[23] = target: T12, cGMP-specific 3',5'-cyclic phosphodiesterase; assay: Inhibition of human PDE5A at 10^4 nM using FAM-3',5'-cAMP as substrate after 1 hr by fluorescence polarization assay relative to control
[24] = target: T8, cGMP-inhibited 3',5'-cyclic phosphodiesterase 3B; assay: Inhibition of human PDE3B using FAM-3',5'-cAMP as substrate after 1 hr by fluorescence polarization assay
[25] = target: T9, Cone cGMP-specific 3',5'-cyclic phosphodiesterase subunit alpha'; assay: Inhibition of human PDE6C at 10^4 nM using FAM-3',5'-cAMP as substrate after 1 hr by fluorescence polarization assay relative to control
[26] = target: T4, Dual specificity calcium/calmodulin-dependent 3',5'-cyclic nucleotide phosphodiesterase 1A; assay: Inhibition of human PDE1A at 10^4 nM using FAM-3',5'-cAMP as substrate after 1 hr by fluorescence polarization assay relative to control
[27] = target: T11, 3',5'-cyclic-AMP phosphodiesterase 4A; assay: Inhibition of full length human PDE4A4 using FAM-3',5'-cAMP as substrate after 1 hr by fluorescence polarization assay
[28] = target: T14, cGMP-dependent 3',5'-cyclic phosphodiesterase; assay: Inhibition of human PDE2A at 10^4 nM using FAM-3',5'-cAMP as substrate after 1 hr by fluorescence polarization assay relative to control
[29] = target: T7, 3',5'-cyclic-AMP phosphodiesterase 4D; assay: Inhibition of full length human PDE4D7 using FAM-3',5'-cAMP as substrate after 1 hr by fluorescence polarization assay
[30] = target: T6, Dual 3',5'-cyclic-AMP and -GMP phosphodiesterase 11A; assay: Inhibition of human PDE11A using FAM-3',5'-cAMP as substrate after 1 hr by fluorescence polarization assay
[31] = test system: BV-2; assay: Antineuroinflammatory activity in mouse BV2 cells assessed as inhibition of LPS-induced TNFalpha production; format: functional, cell-based

T1 sequence (Q08493 whole entry): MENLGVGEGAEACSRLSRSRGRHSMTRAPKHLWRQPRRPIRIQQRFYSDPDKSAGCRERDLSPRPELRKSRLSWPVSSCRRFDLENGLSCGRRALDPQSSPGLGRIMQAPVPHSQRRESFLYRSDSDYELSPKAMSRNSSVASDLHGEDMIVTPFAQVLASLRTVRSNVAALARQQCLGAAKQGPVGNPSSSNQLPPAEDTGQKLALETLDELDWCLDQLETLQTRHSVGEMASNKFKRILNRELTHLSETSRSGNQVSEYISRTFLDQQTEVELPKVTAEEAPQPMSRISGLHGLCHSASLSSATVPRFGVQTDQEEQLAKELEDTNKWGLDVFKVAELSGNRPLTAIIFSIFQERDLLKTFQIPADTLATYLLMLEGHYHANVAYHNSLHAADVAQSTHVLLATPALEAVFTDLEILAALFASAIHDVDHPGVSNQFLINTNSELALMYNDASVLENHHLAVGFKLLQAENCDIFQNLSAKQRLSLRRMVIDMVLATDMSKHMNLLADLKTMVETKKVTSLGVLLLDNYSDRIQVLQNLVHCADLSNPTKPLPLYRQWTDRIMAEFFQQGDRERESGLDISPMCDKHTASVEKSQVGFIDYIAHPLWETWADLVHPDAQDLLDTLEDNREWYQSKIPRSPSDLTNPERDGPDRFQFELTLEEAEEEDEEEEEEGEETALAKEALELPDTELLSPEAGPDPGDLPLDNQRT
T4 sequence (P54750 whole entry): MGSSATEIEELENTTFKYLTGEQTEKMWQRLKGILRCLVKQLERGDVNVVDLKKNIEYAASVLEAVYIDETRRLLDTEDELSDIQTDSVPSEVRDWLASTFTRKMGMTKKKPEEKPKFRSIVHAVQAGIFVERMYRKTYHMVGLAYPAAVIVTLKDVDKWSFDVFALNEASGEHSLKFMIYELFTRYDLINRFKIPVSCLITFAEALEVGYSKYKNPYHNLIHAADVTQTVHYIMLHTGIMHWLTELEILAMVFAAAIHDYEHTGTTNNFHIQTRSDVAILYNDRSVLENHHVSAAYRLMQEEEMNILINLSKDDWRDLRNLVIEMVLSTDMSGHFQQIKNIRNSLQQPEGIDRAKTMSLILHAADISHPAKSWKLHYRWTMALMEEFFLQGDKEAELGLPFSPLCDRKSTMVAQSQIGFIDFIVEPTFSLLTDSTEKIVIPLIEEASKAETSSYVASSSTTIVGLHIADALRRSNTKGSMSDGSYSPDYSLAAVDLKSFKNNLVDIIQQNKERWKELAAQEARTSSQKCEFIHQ
T2 sequence (Q9Y233 whole entry): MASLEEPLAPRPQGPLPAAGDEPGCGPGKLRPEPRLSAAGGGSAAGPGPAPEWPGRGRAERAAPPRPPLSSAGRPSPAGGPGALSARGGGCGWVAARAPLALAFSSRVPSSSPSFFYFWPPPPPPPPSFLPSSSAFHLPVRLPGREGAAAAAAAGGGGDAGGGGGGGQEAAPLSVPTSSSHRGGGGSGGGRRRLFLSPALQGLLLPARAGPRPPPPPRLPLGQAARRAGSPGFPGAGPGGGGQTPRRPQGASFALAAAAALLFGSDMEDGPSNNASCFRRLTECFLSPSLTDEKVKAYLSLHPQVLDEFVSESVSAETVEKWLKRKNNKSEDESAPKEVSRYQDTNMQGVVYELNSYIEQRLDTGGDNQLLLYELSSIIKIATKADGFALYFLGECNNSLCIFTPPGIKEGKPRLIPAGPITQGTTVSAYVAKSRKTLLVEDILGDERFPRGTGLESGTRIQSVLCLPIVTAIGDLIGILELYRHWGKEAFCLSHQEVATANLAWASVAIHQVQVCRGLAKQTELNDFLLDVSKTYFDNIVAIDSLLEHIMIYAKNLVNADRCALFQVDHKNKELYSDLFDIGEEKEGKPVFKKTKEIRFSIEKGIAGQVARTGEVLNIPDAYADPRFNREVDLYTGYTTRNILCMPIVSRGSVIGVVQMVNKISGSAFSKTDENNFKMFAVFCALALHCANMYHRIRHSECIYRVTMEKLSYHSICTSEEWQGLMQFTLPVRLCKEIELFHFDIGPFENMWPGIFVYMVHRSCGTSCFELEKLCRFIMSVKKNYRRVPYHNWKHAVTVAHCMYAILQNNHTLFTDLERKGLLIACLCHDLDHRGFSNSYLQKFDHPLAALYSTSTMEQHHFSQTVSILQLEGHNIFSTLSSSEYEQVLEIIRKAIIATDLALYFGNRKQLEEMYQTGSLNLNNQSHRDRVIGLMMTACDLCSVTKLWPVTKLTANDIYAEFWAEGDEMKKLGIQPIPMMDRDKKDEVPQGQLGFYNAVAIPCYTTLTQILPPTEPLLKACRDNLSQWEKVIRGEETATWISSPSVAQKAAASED
T9 sequence (P51160 whole entry): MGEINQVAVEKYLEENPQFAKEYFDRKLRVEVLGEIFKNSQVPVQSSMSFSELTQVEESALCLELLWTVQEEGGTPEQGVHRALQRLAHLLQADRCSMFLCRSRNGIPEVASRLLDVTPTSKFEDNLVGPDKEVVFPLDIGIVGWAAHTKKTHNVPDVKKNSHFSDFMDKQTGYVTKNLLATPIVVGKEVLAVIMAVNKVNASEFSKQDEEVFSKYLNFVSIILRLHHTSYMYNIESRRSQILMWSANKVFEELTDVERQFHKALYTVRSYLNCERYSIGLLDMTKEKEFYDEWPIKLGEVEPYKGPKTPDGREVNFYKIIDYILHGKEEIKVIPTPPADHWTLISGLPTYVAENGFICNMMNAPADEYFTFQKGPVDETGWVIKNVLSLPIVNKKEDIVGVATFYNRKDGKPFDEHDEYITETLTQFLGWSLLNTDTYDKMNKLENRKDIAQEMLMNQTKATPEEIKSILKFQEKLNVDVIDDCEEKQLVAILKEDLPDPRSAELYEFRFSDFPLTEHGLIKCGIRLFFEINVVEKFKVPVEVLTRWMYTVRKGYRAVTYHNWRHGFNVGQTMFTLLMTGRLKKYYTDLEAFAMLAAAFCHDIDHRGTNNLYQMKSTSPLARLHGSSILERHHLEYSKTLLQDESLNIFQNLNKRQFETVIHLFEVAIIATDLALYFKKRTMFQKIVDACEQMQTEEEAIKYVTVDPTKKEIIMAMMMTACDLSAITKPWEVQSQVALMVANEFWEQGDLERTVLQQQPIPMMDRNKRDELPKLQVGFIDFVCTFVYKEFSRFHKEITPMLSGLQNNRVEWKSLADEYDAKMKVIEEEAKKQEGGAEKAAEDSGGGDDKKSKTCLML
T13 sequence (O60658 whole entry): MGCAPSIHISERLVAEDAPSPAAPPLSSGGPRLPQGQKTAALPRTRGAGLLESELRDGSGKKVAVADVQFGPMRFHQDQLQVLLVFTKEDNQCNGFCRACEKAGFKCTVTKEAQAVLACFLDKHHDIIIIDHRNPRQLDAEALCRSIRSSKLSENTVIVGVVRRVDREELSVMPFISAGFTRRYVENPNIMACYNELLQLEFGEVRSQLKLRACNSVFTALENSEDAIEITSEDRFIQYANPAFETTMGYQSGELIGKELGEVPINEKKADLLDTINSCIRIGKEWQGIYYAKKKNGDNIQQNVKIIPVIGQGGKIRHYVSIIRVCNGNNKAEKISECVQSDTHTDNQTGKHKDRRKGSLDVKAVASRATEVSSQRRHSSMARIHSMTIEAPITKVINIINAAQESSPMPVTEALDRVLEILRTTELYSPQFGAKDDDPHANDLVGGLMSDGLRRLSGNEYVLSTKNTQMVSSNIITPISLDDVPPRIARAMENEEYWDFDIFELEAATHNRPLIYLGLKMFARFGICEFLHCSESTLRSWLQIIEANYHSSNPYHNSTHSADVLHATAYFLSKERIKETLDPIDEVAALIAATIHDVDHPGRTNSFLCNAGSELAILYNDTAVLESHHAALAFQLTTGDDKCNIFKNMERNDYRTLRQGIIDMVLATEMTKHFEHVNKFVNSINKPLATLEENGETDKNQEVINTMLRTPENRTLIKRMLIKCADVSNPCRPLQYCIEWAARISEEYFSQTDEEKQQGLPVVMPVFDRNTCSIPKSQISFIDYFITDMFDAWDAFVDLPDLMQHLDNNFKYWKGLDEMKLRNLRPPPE
T7 sequence (Q08499 whole entry): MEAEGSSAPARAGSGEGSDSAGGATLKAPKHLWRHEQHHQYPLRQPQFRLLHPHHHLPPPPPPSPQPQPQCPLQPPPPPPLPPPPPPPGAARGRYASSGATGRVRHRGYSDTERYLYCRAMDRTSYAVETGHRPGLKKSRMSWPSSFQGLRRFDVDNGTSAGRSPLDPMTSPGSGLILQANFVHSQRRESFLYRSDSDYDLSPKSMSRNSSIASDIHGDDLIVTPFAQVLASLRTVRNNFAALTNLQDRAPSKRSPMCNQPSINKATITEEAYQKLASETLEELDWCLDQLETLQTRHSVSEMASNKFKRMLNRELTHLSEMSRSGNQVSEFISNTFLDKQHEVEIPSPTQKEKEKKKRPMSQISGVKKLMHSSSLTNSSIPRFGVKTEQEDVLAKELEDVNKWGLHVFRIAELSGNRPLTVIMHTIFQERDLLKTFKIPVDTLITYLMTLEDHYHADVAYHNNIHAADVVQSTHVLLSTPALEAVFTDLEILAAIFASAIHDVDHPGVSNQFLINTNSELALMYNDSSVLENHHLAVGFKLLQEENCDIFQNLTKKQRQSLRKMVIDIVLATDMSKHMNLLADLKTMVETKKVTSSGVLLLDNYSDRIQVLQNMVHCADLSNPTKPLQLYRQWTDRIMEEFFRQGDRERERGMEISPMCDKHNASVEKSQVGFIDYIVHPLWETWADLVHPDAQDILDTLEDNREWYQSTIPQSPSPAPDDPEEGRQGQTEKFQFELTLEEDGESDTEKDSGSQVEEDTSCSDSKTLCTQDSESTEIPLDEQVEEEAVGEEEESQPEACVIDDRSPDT

SMILES	IC50 [1]	Ratio IC50 [2]	IC50 [3]	IC50 [4]	IC50 [5]	inhibition [6]	IC50 [7]	inhibition [8]	inhibition [9]	inhibition [10]	inhibition [11]	inhibition [12]	IC50 [13]	IC50 [14]	inhibition [15]	IC50 [16]	IC50 [17]	inhibition [18]	IC50 [19]	IC50 [20]	other results
COc1ccc(C(=O)N(C)c2ccccn2)cc1OC1CCCC1	9700 nM	–	–	–	–	–	–	–	–	–	–	–	–	–	–	–	–	–	–	–	–
COc1ccc(C2CNC(=O)C2)cc1OC1CCCC1 (configuration not stated) [ROLIPRAM]	550 nM	–	–	–	–	–	–	–	–	–	–	–	–	–	–	–	–	–	–	–	–
CN(C(=O)c1ccc(OC(F)F)c(OCC2CC2)c1)c1ccccn1	2500 nM	–	–	–	–	–	–	–	–	–	–	–	–	–	–	–	–	–	–	–	–
COc1ccc(C(=O)N(C)c2ccccn2)cc1OCC1CC1	25100 nM	–	–	–	–	–	–	–	–	–	–	–	–	–	–	–	–	–	–	–	–
CN(C(=O)c1ccc(OC(F)F)c(OC2CCCC2)c1)c1ccccn1	1400 nM	–	–	–	–	–	–	–	–	–	–	–	–	–	–	–	–	–	–	–	–

These reach a lower IC50 [1]. Values come first.

IC50 [1]	Ratio IC50 [2]	IC50 [3]	IC50 [4]	IC50 [5]	inhibition [6]	IC50 [7]	inhibition [8]	inhibition [9]	inhibition [10]	inhibition [11]	inhibition [12]	IC50 [13]	IC50 [14]	inhibition [15]	IC50 [16]	IC50 [17]	inhibition [18]	IC50 [19]	IC50 [20]	SMILES	other results
360 nM	< 18	–	–	–	–	–	–	–	–	–	–	–	–	–	–	–	–	–	–	COc1ccc(C(=O)Nc2cccnc2)cc1OCC1CC1	–
310 nM	< 18	–	–	–	–	–	–	–	–	–	–	–	–	–	–	–	–	–	–	COc1ccc(C(=O)Nc2cccnc2)cc1OC1CCCC1	–
240 nM	< 18	–	–	–	–	–	–	–	–	–	–	–	–	–	–	–	–	–	–	O=C(Nc1ccccc1)c1ccc(OC(F)F)c(OC2CCCC2)c1	–
220 nM	< 18	–	–	–	–	–	–	–	–	–	–	–	–	–	–	–	–	–	–	O=C(Nc1ccccc1)c1ccc(OC(F)F)c(OCC2CC2)c1	–
140 nM	< 18	294 nM	> 100000 nM	> 100000 nM	9%	> 100000 nM	4%	76%	99%	6%	98%	> 100000 nM	39 nM	98%	> 100000 nM	> 100000 nM	3%	> 100000 nM	> 100000 nM	O=C(Nc1cccnc1)c1ccc(OC(F)F)c(OC2CCCC2)c1	inhibition [21]: 99%; inhibition [22]: 9%; inhibition [23]: 12%; IC50 [24]: > 100000 nM; inhibition [25]: 16%; inhibition [26]: 0%; IC50 [27]: 117 nM; inhibition [28]: 26%; IC50 [29]: 68 nM
90 nM	< 18	501 nM	> 100000 nM	> 100000 nM	3%	> 100000 nM	3%	5%	99%	13%	96%	> 100000 nM	166 nM	100%	> 100000 nM	> 100000 nM	7%	> 100000 nM	> 100000 nM	O=C(Nc1ccccc1Cl)c1ccc(OC(F)F)c(OCC2CC2)c1	IC50 [30]: > 100000 nM; inhibition [21]: 98%; inhibition [22]: 3%; inhibition [23]: 12%; IC50 [24]: > 100000 nM; inhibition [25]: 2%; inhibition [26]: 6%; inhibition [31]: Dose-dependent effect; IC50 [27]: 126 nM; inhibition [28]: 8%; IC50 [29]: 39 nM
69 nM	< 18	269 nM	> 100000 nM	> 100000 nM	14%	> 100000 nM	8%	85%	100%	6%	98%	> 100000 nM	34 nM	98%	> 100000 nM	> 100000 nM	7%	> 100000 nM	> 100000 nM	O=C(Nc1cccnc1)c1ccc(OC(F)F)c(OCC2CC2)c1	inhibition [21]: 99%; inhibition [22]: 22%; inhibition [23]: 23%; IC50 [24]: > 100000 nM; inhibition [25]: 28%; inhibition [26]: 20%; IC50 [27]: 76 nM; inhibition [28]: 23%; IC50 [29]: 71 nM
30 nM	< 18	400 nM	> 100000 nM	> 100000 nM	6%	> 100000 nM	6%	7%	99%	6%	97%	> 100000 nM	144 nM	98%	> 100000 nM	> 100000 nM	3%	> 100000 nM	> 100000 nM	O=C(Nc1ccccc1Cl)c1ccc(OC(F)F)c(OC2CCCC2)c1	IC50 [30]: > 100000 nM; inhibition [21]: 100%; inhibition [22]: 10%; inhibition [23]: 7%; IC50 [24]: > 100000 nM; inhibition [25]: 2%; inhibition [26]: 3%; IC50 [27]: 95 nM; inhibition [28]: 28%; IC50 [29]: 22 nM
